# Paper PMC8954547, “Nonpeptidic Z360-Analogs Tagged with Trivalent Radiometals as Anti-CCK2R Cancer Theranostic Agents: A Preclinical Study” (Pharmaceutics, 2022)
# Legend:
# [1] = Radioligand stability in mice (radio-HPLC of blood and urine); assay type: in vivo; conditions: mean ± SD
# Experimental: The formation of radiometabolites which can be detected in the blood was tested in blood samples collected 5 min post-injection (pi) of each of the radioligands [^67Ga]Ga/[^111In]In/[^177Lu]Lu-GAS1/3 and [^67Ga]Ga/[^111In]In-GAS2. For this study, in-house male Swiss albino mice (body weight: 30 ± 5 g, provided by the NCSR “Demokritos” Animal House) were used in groups of three. The animals received, through the tail vein, a 100-μL bolus containing each radioligand tested (2.5–3 nmol of the total conjugate in vehicle: saline/EtOH 9/1 v/v, corresponding to: up to 11 MBq for In-111, up to 13 MBq for Ga-67 and up to 74 MBq for Lu-177). Mice were euthanized, and blood was collected directly from the heart using a prechilled penicillin syringe and transferred in a prechilled EDTA-containing Eppendorf Protein LoBind® tube on ice (40 µL, 50 mM Na2EDTA solution). After centrifugation (10 min, 2000× g/4 °C, in a Hettich, Universal 320R, centrifuge), the blood plasma was collected, mixed with chilled MeCN in a 1/1 v/v ratio and centrifuged again (10 min, 15,000× g/4 °C). Supernatants were collected and concentrated to a small volume (≈50–100 μL) under a gentle N2-flux at 40 °C. They were then diluted with physiological saline (≈400 μL) and filtered through a Millex GV filter (0.22 μm, 13 mm Ø, Millipore, Milford, CT, USA). Aliquots of the filtrate were analyzed by radio-RP-HPLC using a Waters Symmetry Shield RP18 cartridge column (5 μm, 3.9 mm × 20 mm) eluted at a flow rate of 1.0 mL/min with the following gradient: 100% A/0% B to 55% A/45% B in 45 min; A = 0.1% aqueous TFA (v/v) and B = MeCN (system 2). The elution time (tR) of each parent radioligand was determined by coinjection of blood samples with an aliquot of the labeling solution on the HPLC column. Results were calculated as the average percentage of intact radioligand ± SD derived from three independent experiments.
# Following the same injection protocol, radioligands were administered in additional groups of mice, but this time animals were euthanized 30 min pi. The urine was immediately collected from the bladder using a prechilled syringe and transferred as before in a prechilled EDTA-containing Eppendorf Protein LoBind® centrifuge tube on ice (40 µL, 50 mM Na2EDTA solution) and 0.1 mL of physiological saline. Urine proteins were precipitated by adding chilled MeCN in a 1/1 v/v ratio followed by a 10 min centrifugation step (15,000× g/4 °C). The supernatant was then collected and treated following the blood sample workup procedure. Aliquots of the Millex-GV filtrate (containing >90% of total urine activity) were analyzed by radio-HPLC, adopting the aforementioned conditions. Results were calculated as the average percentage of intact radioligand ± SD derived from three independent experiments.
# HEK293-CCK2i4svR cells = test: Radioligand uptake and internalization in HEK293-CCK2i4svR cells; assay type: cell-based, human
# Experimental: A day before the experiment, HEK293-CCK2i4svR cells were seeded in six-well plates. The next day, cells were rinsed with ice-cold internalization medium (IM: DMEM Glutamax-I, supplemented by 1% (v/v) FBS) and then the fresh medium was added (1.2 mL) at 37 °C. A further portion of IM (150 µL) was added in the upper well-row, and DG2 solution in IM (150 µL) was added in the lower row (to a final concentration of 1 μM; non-specific series). Each of the test radioligands, [^67Ga]Ga/[^111In]In/[^177Lu]Lu-GAS1/3 and [^67Ga]Ga/[^111In]In-GAS2, was finally added (250 fmol total conjugates in 150 μL 0.5% BSA-PBS) in all the wells and the plates were incubated at for 1 h at 37 °C in an Incubator-Orbital Shaker unit (MPM Instr. SrI, Bernareggio, MI, Italy); [^111In]In-GAS1/2/3 were incubated for 15 min, 30 min, 1 h and 2 h. At the predetermined time points, the plates were placed on ice, the medium was collected, and the plates were rinsed with 0.5% BSA-PBS (1 mL). Cells were subsequently treated with an acid-wash solution (2 × 600 µL; 50 mM glycine buffer pH 2.8, 0.1 M NaCl) and the fractions collected (membrane-bound). After briefly washing with 0.5% BSA-PBS (1 mL), the cells were lysed with 1 N NaOH (2 × 600 µL), and the fractions were collected (internalized). The radioactivity content of collected fractions was counted in the gamma counter, and the percentage of internalized and membrane-bound fractions per time point were calculated with Microsoft Excel. Specific internalized and membrane-bound counts were determined by subtracting the respective non-specific (in the presence of 1 μM DG2) from the respective total counts. Results represent specific internalized/membrane bound ± SD of total added radioactivity per well from three experiments performed in triplicate.
# [2] = tested on: SCID mice bearing twin HEK293-CCK2i4svR and wtHEK293 tumors; test: Biodistribution in SCID mice bearing twin HEK293-CCK2i4svR and wtHEK293 xenografts; assay type: in vivo
# How it was run: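 Uptake is expressed as %IA/g (mean ± SD, n = 4) from gamma counting of blood, organs and tumours collected at set times: 1, 4 and 24 h pi for ^67Ga, 4 and 24 h for ^111In (±gelofusine), 4–96 h for ^177Lu. Radioligands were given iv at 7–40 pmol to SCID mice bearing twin CCK2i4svR-transfected and wild-type HEK293 xenografts.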
structure (smiles),measurement,setting,value
CC(C)(C)C(=O)CN1C(=O)[C@H](NC(=O)Nc2cccc(C(=O)NCCOCCOCCOCCNC(=O)[C@H](CCC(=O)O)NC(=O)CCC(C(=O)[O-])N3CCN(CC(=O)[O-])CCN(CC(=O)[O-])CC3)c2)CN(C2CCCCC2)c2ccccc21.[67Ga+3] (stereo in doubt) [[^67Ga]Ga-GAS2],Intact radioligand in blood,[1]; mice blood collected 5 min pi,96.3 ± 3.7 (3) %
same,Intact radioligand in urine,[1]; mice urine collected 30 min pi,81.6 ± 1.5 (3) %
same,Internalized to membrane-bound ratio,HEK293-CCK2i4svR cells,0.9
same,Cell uptake (internalized + membrane-bound),"HEK293-CCK2i4svR cells; 1 h 37 °C, specific, of total added activity",7.32 ± 0.57%
same,"Biodistribution, Blood",[2]; 1 h pi,0.86 ± 0.08 %IA/g
same,"Biodistribution, CCK2i4svR(+) Tumor",[2]; 1 h pi,4.06 ± 0.07 %IA/g
same,"Biodistribution, CCK2i4svR(-) Tumor",[2]; 1 h pi,0.48 ± 0.03 %IA/g
same,"Biodistribution, Femur",[2]; 1 h pi,0.24 ± 0.03 %IA/g
same,"Biodistribution, Heart",[2]; 1 h pi,0.27 ± 0.03 %IA/g
same,"Biodistribution, Intestines",[2]; 1 h pi,> 25 %IA/g
same,"Biodistribution, Kidneys",[2]; 1 h pi,1.48 ± 0.18 %IA/g
same,"Biodistribution, Liver",[2]; 1 h pi,5.51 ± 2.03 %IA/g
same,"Biodistribution, Lungs",[2]; 1 h pi,0.80 ± 0.09 %IA/g
same,"Biodistribution, Muscle",[2]; 1 h pi,0.12 ± 0.02 %IA/g
same,"Biodistribution, Pancreas",[2]; 1 h pi,0.37 ± 0.05 %IA/g
same,"Biodistribution, Spleen",[2]; 1 h pi,0.52 ± 0.06 %IA/g
same,"Biodistribution, Stomach",[2]; 1 h pi,0.32 ± 0.14 %IA/g
same,"Biodistribution, Intestines","[2]; 1 h pi, listed as [67Ga]Ga-GAS2",25.26 ± 2.90 %IA/g
same,"Biodistribution, Blood",[2]; 4 h pi,0.19 ± 0.06 %IA/g
same,"Biodistribution, CCK2i4svR(+) Tumor",[2]; 4 h pi,1.53 ± 0.26 %IA/g
same,"Biodistribution, CCK2i4svR(-) Tumor",[2]; 4 h pi,0.19 ± 0.08 %IA/g
same,"Biodistribution, Femur",[2]; 4 h pi,0.13 ± 0.03 %IA/g
same,"Biodistribution, Heart",[2]; 4 h pi,0.10 ± 0.03 %IA/g
same,"Biodistribution, Intestines",[2]; 4 h pi,> 25 %IA/g
same,"Biodistribution, Kidneys",[2]; 4 h pi,0.39 ± 0.11 %IA/g
same,"Biodistribution, Liver",[2]; 4 h pi,2.64 ± 0.85 %IA/g
same,"Biodistribution, Muscle",[2]; 4 h pi,0.04 ± 0.01 %IA/g
same,"Biodistribution, Pancreas",[2]; 4 h pi,0.08 ± 0.05 %IA/g
same,"Biodistribution, Spleen",[2]; 4 h pi,0.55 ± 0.15 %IA/g
same,"Biodistribution, Stomach",[2]; 4 h pi,0.14 ± 0.06 %IA/g
same,"Biodistribution, Intestines","[2]; 4 h pi, listed as [67Ga]Ga-GAS2",26.38 ± 11.89 %IA/g
same,"Biodistribution, Blood",[2]; 24 h pi,0.05 ± 0.00 %IA/g
same,"Biodistribution, CCK2i4svR(+) Tumor",[2]; 24 h pi,0.24 ± 0.03 %IA/g
same,"Biodistribution, CCK2i4svR(-) Tumor",[2]; 24 h pi,0.08 ± 0.00 %IA/g
same,"Biodistribution, Femur",[2]; 24 h pi,0.10 ± 0.03 %IA/g
same,"Biodistribution, Heart",[2]; 24 h pi,0.04 ± 0.01 %IA/g
same,"Biodistribution, Intestines",[2]; 24 h pi,0.31 ± 0.32 %IA/g
same,"Biodistribution, Kidneys",[2]; 24 h pi,0.06 ± 0.01 %IA/g
same,"Biodistribution, Liver",[2]; 24 h pi,0.78 ± 0.17 %IA/g
same,"Biodistribution, Lungs",[2]; 24 h pi,0.15 ± 0.02 %IA/g
same,"Biodistribution, Muscle",[2]; 24 h pi,0.02 ± 0.00 %IA/g
same,"Biodistribution, Pancreas",[2]; 24 h pi,0.03 ± 0.00 %IA/g
same,"Biodistribution, Spleen",[2]; 24 h pi,0.35 ± 0.02 %IA/g
same,"Biodistribution, Stomach",[2]; 24 h pi,0.06 ± 0.02 %IA/g
same,Background clearance / excretion route,"[2]; mouse, in vivo",high hepatobiliary excretion
